Data set [1] can be described thus: pharmacokinetics after single IV administration. The conditions noted are these: rabbit, 5 mg/kg; for AUC / half-life / k el: plasma; for AUC / half-life / CLT: n = 4; for k el: n = 4, read-out: Elimination rate constant (converted). The format is in vivo. The source says: IV administration of the compounds under investigation, and collection of blood samples were through a catheter inserted in the marginal ear vein of the rabbit (I-Cath, CharterMed Inc., Winston-Salem, NC, USA). After IV drug administration, blood was withdrawn to fill the cannula and then reinjected three times before obtaining any blood samples to prevent contamination. Furthermore, the cannula was flushed with heparinized saline to prevent blockage of the cannula and prevent sample to sample contamination.
Urine samples were collected utilizing Foly Catheter (size French 8). The catheter was inserted into the rabbit bladder using a lubricant. When urine is collected over a specific time interval, the bladder was irrigated with 3 × 15 mL normal saline at 3 min, 6 min, and 10 min before the end of the urine collection interval [15, 16]. Irrigation of the bladder is necessary to obtain the majority of the drug eliminated in urine during the collection interval.
Three groups of rabbits (n = 4, each) received 5 mg/kg dose of each compound via the IV catheter. This dose was selected based on the results of a preliminary experiment to achieve measurable plasma concentrations for 8 h using our analytical methods, to ensure good characterization of the plasma concentration-time profile. Accurately weighed Lzd and PH027 powder were dissolved first in 600 μL of ethanol using an ultrasound water bath. The resulting solution was then diluted with normal saline to produce the solutions used for IV administration, which consist of the dose of the compound dissolved in 3 mL of 20% ethanol in normal saline. PH051 required the use of slightly larger volume of ethanol to achieve complete dissolution. So, 900 μL of ethanol were used, and the resulting solution used for IV administration consisted of PH051 dose dissolved in 3 mL of 30% ethanol in normal saline. The difference in the volume of ethanol administered, 300 μL, which was necessary to ensure complete dissolution of PH051, should not have a significant effect on the pharmacokinetic behavior of PH051. The solutions were administered slowly over a period of […] administration, serial blood and urine samples were obtained over a period of 8 h. Plasma was obtained from blood by centrifugation, and samples were kept at −80 °C until analysis. The volumes of urine samples were determined and recorded, and aliquots were kept at −80 °C until analysis.
(§1) The pharmacokinetic parameters for each of the three compounds including half-life (t1/2), volume of distribution (Vd), elimination rate constant (k), area under the plasma concentration-time curve (AUC), total body clearance (CLT), renal clearance (CLR), and oral bioavailability (F) were determined using the general pharmacokinetic parameter calculation procedures using PKPD tools for Microsoft Excel. The obtained pharmacokinetic parameters for each compound were compared using Statistical Package of Social Sciences (SPSS) to determine the difference in the pharmacokinetic behavior for the three compounds.

Data set [2] is described as follows: pharmacokinetics after single oral administration as suspension. The format is in vivo. The conditions noted are these: New Zealand White, plasma, rabbit, 20 mg/kg, n = 4. Here is the method:
The pediatric feeding tube was pushed until it reached the stomach.
(§2) Three groups of rabbits (n = 4, each) received 20 mg/kg oral dose of each compound. […] Accurately weighted amounts of each compound were dissolved/suspended in 20 mL of warm normal saline using an ultrasound water bath. […] The solutions/suspensions of the three compounds were administered orally to the rabbits using a pediatric feeding tubes. After oral administration of each compound, serial blood samples were obtained through the IV catheter, over a period of 10 h after administration. Plasma was obtained from blood by centrifugation, and samples were kept at −80 °C until analysis.
as §1

Data set [3] in a line: pharmacokinetics after single oral administration as microemulsion. The data set is classed as in vivo. The conditions noted are these: plasma, rabbit, 20 mg/kg, n = 3; for AUC / Cmax / Tmax: New Zealand White; for bioavailability: White New Zealand. Here is the method:
Three groups of rabbits (n = 3, each) received 20 mg/kg oral dose of each compound in the form of microemulsion through a pediatric feeding tube. After administration, serial blood samples were obtained through the IV catheter, over a period of 10 h. Plasma was obtained from blood by centrifugation, and samples were kept at −80 °C until analysis.
as §1

A short description of data set [4]: biopharmaceutical classification system (BCS) class. The conditions noted are these: assigned from lower aqueous solubility than Lzd and calculated Log P less than 1.7.
Data set [5] is described as follows: solubility observed on preparing the oral dose in normal saline. The conditions noted are these: 20 mg/kg oral dose in 20 mL of warm normal saline. The data set is classed as physicochemical. The protocol: as §2
The test system of a further data set is Heamophilus influenzae. Further details: method as in PMID 12467705, PMID 15911326, PMID 17140706, PMID 19376613, PMID 23811087. The conditions noted are these: unit printed only for the neighbouring MICs of the sentence; cited from earlier work.

Converted amounts (≈) assume the structure as drawn.

For the compound `O=C1O[C@@H](Cn2ccnn2)CN1c1ccc(N2CCOCC2)c(F)c1` [PH027], in data set [1] (White New Zealand), the AUC amounted to 5670 ± 933 ng·h/mL, the half-life is 1.15 ± 0.202 h and the k el is 0.000168 s⁻¹. Besides, the CL renal in data set [1] (White New Zealand, urine and plasma, from renal excretion rate and plasma drug concentration, read-out: Renal clearance (converted)) is 0.0633 mL/min/kg. The CLT in data set [1] was found to be 14.7 ± 3.83 mL/min/kg. In data set [2], the exposure (AUC) stood at 5010 ± 2430 ng·h/mL, the peak concentration (Cmax) amounted to 1620 ± 820 ng/mL, the Tmax was 1 h and the bioavailability stood at 22.1%. Moreover, in data set [3], the AUC came to 16600 ng·h/mL, the highest level (Cmax) was 2870 ± 392 ng/mL, the Tmax is 2 h and the bioavailability was determined as 72.9%. Further, the BCS class entry in data set [4] is given as “Class IV”.
On to `O=C1O[C@@H](Cn2ccnn2)CN1c1ccc(N2CCN(C(=O)C(F)(F)F)CC2)c(F)c1` [PH051], for which, in data set [1] (White New Zealand), the AUC was determined as 1950 ± 986 ng·h/mL, the half-life worked out at 2.92 ± 0.768 h and the k el was 6.6e-05 s⁻¹. For the same compound, the CLT in data set [1] worked out at 42.73 ± 20.2 mL/min/kg. In addition, the “Fraction excreted unchanged in urine” value in data set [1] (ratio of renal clearance to total body clearance) is “only trace amounts”. In data set [2], the AUC is 369 ± 378 ng·h/mL, the Cmax worked out at 69.7 ± 14.8 ng/mL, the time to peak (Tmax) was 1 h and the bioavailability is 4.73%. For the same compound, in data set [3], the AUC is 1080 ± 426 ng·h/mL, the concentration peaked (Cmax) at 731 ± 412 ng/mL, the Tmax was 0.5 h and the bioavailability amounted to 13.9%. Besides, in data set [5], the “solubility (observed)” value was “least water-soluble of the three compounds”. For the same compound, the MIC in the data set on Heamophilus influenzae is 64 µg/mL (≈ 145 µM). Besides, the BCS class entry in data set [4] is “Class IV”.

A word on the AUC: it is concentration integrated over time. Low readings indicate low exposure, high ones high exposure. As usually defined, the half-life is how long it takes for the measured level to halve. A low value points to fast loss. The term Cmax denotes the peak of the concentration-time curve. For orientation: Tmax means the time from dosing to the highest level. A word on the bioavailability: it is dose-corrected exposure relative to a reference, in per cent.

Source of the values: paper PMC5620575 (Pharmaceutics, 2017).
